Tests used:
[1] = molecular target: T1, Serine/threonine-protein kinase A-Raf (Homo sapiens) (UniProt P10398); experiment: Inhibition of human ARAF at 500 nM by HotSpot assay relative to control
T1 sequence (whole entry): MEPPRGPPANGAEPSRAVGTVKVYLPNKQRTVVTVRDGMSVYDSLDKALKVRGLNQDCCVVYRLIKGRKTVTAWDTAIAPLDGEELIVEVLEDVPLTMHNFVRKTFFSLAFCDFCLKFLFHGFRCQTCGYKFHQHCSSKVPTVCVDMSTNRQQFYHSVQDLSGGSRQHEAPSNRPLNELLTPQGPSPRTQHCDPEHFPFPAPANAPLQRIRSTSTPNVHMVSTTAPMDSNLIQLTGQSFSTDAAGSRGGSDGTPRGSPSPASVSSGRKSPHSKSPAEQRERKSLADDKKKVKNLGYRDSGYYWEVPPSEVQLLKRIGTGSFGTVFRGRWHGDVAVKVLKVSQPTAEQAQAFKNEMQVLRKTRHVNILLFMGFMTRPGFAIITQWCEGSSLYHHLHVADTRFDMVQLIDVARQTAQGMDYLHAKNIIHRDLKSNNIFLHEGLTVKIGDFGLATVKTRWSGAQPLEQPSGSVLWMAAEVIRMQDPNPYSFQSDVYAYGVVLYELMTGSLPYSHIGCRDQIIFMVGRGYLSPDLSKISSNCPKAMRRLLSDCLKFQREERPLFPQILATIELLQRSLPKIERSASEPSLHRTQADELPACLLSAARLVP

[2] = molecular target: T2, Dual specificity tyrosine-phosphorylation-regulated kinase 2 (Homo sapiens) (UniProt Q92630); experiment: Inhibition of human DYRK2 at 500 nM by HotSpot assay relative to control
T2 sequence (whole entry): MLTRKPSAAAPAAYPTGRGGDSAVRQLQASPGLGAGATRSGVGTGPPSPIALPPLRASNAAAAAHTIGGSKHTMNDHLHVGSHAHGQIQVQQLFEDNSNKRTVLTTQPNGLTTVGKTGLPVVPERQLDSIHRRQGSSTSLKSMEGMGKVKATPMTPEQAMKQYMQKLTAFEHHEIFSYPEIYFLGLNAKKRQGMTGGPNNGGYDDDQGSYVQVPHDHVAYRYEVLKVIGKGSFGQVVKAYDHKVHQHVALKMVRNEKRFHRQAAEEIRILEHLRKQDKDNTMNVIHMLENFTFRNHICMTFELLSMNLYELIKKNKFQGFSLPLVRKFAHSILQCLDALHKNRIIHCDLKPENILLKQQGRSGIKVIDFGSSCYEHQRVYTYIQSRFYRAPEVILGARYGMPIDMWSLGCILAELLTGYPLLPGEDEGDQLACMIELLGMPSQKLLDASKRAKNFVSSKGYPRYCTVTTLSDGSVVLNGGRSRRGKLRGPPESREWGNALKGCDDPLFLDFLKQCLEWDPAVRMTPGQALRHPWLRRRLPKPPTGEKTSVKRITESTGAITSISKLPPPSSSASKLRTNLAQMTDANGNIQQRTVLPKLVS

[3] = molecular target: T3, Serine/threonine-protein kinase 4 (Homo sapiens) (UniProt Q13043); experiment: Inhibition of human STK4 at 500 nM by HotSpot assay relative to control
T3 sequence (whole entry): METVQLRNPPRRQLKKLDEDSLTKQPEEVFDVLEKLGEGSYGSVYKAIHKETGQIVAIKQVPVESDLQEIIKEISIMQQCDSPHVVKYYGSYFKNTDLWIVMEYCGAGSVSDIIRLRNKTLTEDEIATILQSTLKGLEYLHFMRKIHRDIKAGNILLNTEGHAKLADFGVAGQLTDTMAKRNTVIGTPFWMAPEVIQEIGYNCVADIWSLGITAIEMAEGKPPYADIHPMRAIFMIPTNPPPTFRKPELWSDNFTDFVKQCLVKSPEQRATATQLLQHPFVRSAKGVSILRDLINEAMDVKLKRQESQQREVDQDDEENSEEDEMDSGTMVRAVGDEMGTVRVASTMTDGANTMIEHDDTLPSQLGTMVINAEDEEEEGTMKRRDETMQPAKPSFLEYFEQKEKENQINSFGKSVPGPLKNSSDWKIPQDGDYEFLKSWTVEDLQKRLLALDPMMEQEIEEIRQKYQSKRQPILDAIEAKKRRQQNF

[4] = molecular target: T4, Serine/threonine-protein kinase Nek11 (Homo sapiens) (UniProt Q8NG66); experiment: Inhibition of human NEK11 at 500 nM by HotSpot assay relative to control
T4 sequence (whole entry): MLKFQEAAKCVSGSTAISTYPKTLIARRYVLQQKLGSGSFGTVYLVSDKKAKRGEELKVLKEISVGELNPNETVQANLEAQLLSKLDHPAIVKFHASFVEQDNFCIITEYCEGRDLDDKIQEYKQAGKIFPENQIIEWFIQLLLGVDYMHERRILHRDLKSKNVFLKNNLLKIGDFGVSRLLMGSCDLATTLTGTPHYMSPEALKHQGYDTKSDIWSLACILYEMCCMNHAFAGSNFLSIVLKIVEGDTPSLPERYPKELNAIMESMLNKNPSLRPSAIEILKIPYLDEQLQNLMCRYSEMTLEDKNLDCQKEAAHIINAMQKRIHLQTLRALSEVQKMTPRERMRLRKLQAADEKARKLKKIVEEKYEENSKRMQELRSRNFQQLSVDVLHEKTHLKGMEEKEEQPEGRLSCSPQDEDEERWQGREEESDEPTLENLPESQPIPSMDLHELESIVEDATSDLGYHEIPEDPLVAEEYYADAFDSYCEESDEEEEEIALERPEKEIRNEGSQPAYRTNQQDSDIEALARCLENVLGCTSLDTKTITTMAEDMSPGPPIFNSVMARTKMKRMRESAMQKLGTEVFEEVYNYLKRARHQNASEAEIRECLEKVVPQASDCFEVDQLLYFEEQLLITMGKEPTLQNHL

[5] = molecular target: Serine/threonine-protein kinase PLK2 (Homo sapiens) (UniProt Q9NYY3); experiment: Inhibition of human PLK2 at 500 nM by HotSpot assay relative to control
[6] = molecular target: T5, Testis-specific serine/threonine-protein kinase 2 (Homo sapiens) (UniProt Q96PF2); experiment: Inhibition of human TSSK2 at 500 nM by HotSpot assay relative to control
T5 sequence (whole entry): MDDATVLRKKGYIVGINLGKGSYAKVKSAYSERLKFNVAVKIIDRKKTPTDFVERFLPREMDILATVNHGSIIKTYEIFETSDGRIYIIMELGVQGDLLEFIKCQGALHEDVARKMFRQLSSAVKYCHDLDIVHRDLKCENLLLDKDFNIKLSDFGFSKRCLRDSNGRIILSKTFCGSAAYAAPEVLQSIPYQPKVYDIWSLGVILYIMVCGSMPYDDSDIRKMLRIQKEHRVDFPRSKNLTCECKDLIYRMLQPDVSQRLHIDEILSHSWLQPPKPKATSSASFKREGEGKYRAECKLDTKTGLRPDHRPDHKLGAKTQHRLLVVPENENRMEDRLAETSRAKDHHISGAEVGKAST

Chain of Serine/threonine-protein kinase PLK2 (Homo sapiens) (Q9NYY3 whole entry, looked up): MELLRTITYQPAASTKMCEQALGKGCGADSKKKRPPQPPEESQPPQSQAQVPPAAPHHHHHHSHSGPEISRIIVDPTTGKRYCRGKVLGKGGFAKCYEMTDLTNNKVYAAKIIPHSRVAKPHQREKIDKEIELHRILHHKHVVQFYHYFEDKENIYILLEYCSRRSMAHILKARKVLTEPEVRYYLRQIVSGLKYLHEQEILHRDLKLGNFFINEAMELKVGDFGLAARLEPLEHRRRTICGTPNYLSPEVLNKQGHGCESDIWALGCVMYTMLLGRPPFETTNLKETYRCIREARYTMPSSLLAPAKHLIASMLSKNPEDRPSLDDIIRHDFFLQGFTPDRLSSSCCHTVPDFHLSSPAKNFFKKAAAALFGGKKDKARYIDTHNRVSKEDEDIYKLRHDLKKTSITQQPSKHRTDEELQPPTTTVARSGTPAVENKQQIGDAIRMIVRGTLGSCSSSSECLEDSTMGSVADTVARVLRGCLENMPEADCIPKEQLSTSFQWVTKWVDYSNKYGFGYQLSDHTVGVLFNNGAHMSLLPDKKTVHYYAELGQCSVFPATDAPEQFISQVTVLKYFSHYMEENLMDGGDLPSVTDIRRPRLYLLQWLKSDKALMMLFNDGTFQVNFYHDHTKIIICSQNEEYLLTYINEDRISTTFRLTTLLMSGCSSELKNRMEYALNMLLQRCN

## Oc1n[nH]c2nnc(-c3c(-c4ccccc4)nn4ccccc34)cc12
[1]
  inhibition: 2.19%
[2]
  inhibition: -3.03%
[3]
  inhibition: -0.48%
[4]
  inhibition: -4.37%
[5]
  inhibition: -3.28%
[6]
  inhibition: -1.61%

## Nc1n[nH]c2nnc(-c3c(-c4ccccc4)nn4ccccc34)cc12
[1]
  inhibition: 1.59%
[2]
  inhibition: -3.42%
[3]
  inhibition: 0.86%
[4]
  inhibition: 4.86%
[5]
  inhibition: -6.73%
[6]
  inhibition: -4.17%

From ChEMBL document CHEMBL5653615 (J Biol Chem, 2013)
